# Test results as given in ChEMBL document CHEMBL6103563, “Chiral recognition of CIAC001 isomers in regulating pyruvate kinase M2 and mitigating neuroinflammation” (Eur J Med Chem, 2025).
# The source made the active and inactive calls. The rule behind the calls is not given here.
# Experiments:
# [1] = system: BV-2; assay: Anti-neuroinflammatory activity in mouse BV-2 cells assessed as inhibition of LPS-induced NO production incubated for 24 hrs in presence of LPS by fluorescence-based analysis; format: functional, cell-based; conditions: for IC50: BV-2, 24 h
# [2] = system: BV-2; assay: Inhibition of LPS-inuced nuclear translocation of PKM2 in mouse BV-2 cells assessed as decrease in PKM2 content in nucleus at 5 uM incubated for 6 hrs in presence of LPS by western blot analysis; format: subcellular; conditions: filed as modulator
# [3] = system: BV-2; assay: Anti-neuroinflammatory activity in mouse BV-2 cells assessed as inhibition of LPS-induced IL-1 beta mRNA expression at 10 uM by qRT-PCR analysis; format: functional, cell-based
# [4] = Half life in BALB/c mouse brain at 10 mg/kg, po measured for 4 hrs by MS-HPLC analysis; format: ADME, organism-based
# [5] = Tmax in BALB/c mouse brain at 10 mg/kg, po measured for 4 hrs by MS-HPLC analysis; format: ADME, organism-based
# [6] = Mean residence time in BALB/c mouse brain at 10 mg/kg, po measured for 4 hrs by MS-HPLC analysis; format: ADME, organism-based
# [7] = Half life in BALB/c mouse plasma at 10 mg/kg, po measured for 4 hrs by MS-HPLC analysis; format: ADME, organism-based
# [8] = system: BV-2; assay: Anti-neuroinflammatory activity in mouse BV-2 cells assessed as inhibition of LPS-induced IL-1 beta mRNA expression at 1 uM by qRT-PCR analysis; format: functional, cell-based
# [9] = system: BV-2; assay: Anti-neuroinflammatory activity in mouse BV-2 cells assessed as inhibition of LPS-induced microglial activation by measuring inhibition of morphological changes at 5 uM incubated for 24 hrs in presence of LPS by inverted microscopic analysis; format: functional, cell-based
# [10] = Cmax in BALB/c mouse plasma at 10 mg/kg, po measured for 4 hrs by MS-HPLC analysis; format: ADME, organism-based; conditions: in vivo
# [11] = Tmax in BALB/c mouse plasma at 10 mg/kg, po measured for 4 hrs by MS-HPLC analysis; format: ADME, organism-based
# [12] = Acute toxicity against BALB/c mouse assessed as changes in body weight at 20 mg/kg, ip measured for 14 days; format: organism-based; conditions: in vivo, 336 h, time 14 day
# [13] = Ratio of AUC in brain to plasma in BALB/c mouse at 10 mg/kg, po measured for 4 hrs by MS-HPLC analysis; format: ADME, organism-based; conditions: brain and plasma
# [14] = molecular target: T1, Pyruvate kinase PKM (Homo sapiens, UniProt P14618); assay: Binding affinity to PKM2 (unknown origin) assessed as decrease in thermal stabilization of protein by measuring change in melting temperature at 100 uM incubated for 2 hrs at room temperature followed by heating at varying temperatures for 5 mins and later cooled at 25 degC for 3 mins by CETSA analysis; conditions: filed as modulator, time 128.0 min
# Target sequence in this assay (P14618 2-531 limits assumed): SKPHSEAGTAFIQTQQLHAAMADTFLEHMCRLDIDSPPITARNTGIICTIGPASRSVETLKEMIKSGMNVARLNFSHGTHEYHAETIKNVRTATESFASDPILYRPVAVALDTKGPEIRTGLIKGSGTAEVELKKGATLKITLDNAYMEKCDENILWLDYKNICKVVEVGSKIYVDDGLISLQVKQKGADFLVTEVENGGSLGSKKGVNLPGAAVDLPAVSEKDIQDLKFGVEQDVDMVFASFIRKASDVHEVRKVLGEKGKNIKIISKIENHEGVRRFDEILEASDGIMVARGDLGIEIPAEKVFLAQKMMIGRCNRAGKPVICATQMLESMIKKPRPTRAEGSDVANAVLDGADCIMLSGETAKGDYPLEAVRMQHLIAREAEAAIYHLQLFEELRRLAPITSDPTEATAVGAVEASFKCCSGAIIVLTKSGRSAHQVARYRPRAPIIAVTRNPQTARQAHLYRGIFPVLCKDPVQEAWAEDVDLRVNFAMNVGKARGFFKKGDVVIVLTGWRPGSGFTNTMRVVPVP
# [15] = system: Mus musculus; assay: Anti-morphine addiction activity against BALB/c mouse assessed as decrease in preference for morphine-paired chamber at 0.2 mg/kg administration started on day 3 after 2 days of chamber habituation followed by treatment with morphine on days 4,6 and 8 and with vehicle on days 5,7 and 9 and measured on day 10 by conditional place preference test; format: functional, organism-based; conditions: time 8.0 day
# [16] = system: Mus musculus; assay: Anti-neuroinflammatory activity in BALB/c mouse assessed as decrease in morphine-induced IL-1 beta mRNA expression in medial prefrontal cortex at 0.2 mg/kg administration started on day 3 after 2 days of chamber habituation followed by treatment with morphine on days 4,6 and 8 and with vehicle on days 5,7 and 9 and measured on day 10 by qRT-PCR analysis; format: functional, organism-based; conditions: time 8.0 day
# [17] = Cmax in BALB/c mouse brain at 10 mg/kg, po measured for 4 hrs by MS-HPLC analysis; format: ADME, organism-based; conditions: in vivo
# [18] = Acute toxicity against BALB/c mouse assessed as mortality at 20 mg/kg, ip measured after 2 hrs; format: organism-based; conditions: in vivo
# [19] = AUC in BALB/c mouse brain at 10 mg/kg, po measured for 4 hrs by MS-HPLC analysis; format: ADME, organism-based; conditions: in vivo
# [20] = Ratio of Cmax in brain to plasma in BALB/c mouse at 10 mg/kg, po measured for 4 hrs by MS-HPLC analysis; format: ADME, organism-based; conditions: brain and plasma
# [21] = organism: Homo sapiens; assay: Binding affinity to PKM2 F26A mutant (unknown origin) at 10 to 50 uM by fluorescence titration based spectrophotometric analysis; conditions: dose 10-50 µM
# [22] = molecular target: T1, Pyruvate kinase PKM; assay: Binding affinity to PKM2 (unknown origin) assessed as dissociation constant by fluorescence titration based spectrophotometric analysis
# Target sequence in this assay (P14618 whole entry): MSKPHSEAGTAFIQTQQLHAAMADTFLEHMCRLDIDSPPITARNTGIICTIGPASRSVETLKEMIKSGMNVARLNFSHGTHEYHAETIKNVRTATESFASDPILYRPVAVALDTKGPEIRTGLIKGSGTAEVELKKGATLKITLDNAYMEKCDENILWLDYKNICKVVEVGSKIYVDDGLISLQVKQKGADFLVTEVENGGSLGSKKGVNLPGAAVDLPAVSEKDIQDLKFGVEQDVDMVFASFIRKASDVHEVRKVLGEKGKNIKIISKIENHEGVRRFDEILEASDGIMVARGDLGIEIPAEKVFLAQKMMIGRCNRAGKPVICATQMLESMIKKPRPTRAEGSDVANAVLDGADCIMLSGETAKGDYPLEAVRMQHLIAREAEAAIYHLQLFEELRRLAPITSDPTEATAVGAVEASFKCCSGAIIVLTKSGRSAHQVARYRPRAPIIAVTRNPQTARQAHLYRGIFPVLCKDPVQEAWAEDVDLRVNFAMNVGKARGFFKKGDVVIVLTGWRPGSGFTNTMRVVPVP
# [23] = Mean residence time in BALB/c mouse plasma at 10 mg/kg, po measured for 4 hrs by MS-HPLC analysis; format: ADME, organism-based
# [24] = AUC in BALB/c mouse plasma at 10 mg/kg, po measured for 4 hrs by MS-HPLC analysis; format: ADME, organism-based; conditions: in vivo
# [25] = molecular target: Cannabinoid receptor 1 (Homo sapiens, UniProt P21554); assay: Binding affinity to CB1 receptor (unknown origin)
# [26] = molecular target: Cannabinoid receptor 2 (Homo sapiens, UniProt P34972); assay: Binding affinity to CB2 receptor (unknown origin)
# Cannabinoid receptor 2, sequence (P34972 whole entry): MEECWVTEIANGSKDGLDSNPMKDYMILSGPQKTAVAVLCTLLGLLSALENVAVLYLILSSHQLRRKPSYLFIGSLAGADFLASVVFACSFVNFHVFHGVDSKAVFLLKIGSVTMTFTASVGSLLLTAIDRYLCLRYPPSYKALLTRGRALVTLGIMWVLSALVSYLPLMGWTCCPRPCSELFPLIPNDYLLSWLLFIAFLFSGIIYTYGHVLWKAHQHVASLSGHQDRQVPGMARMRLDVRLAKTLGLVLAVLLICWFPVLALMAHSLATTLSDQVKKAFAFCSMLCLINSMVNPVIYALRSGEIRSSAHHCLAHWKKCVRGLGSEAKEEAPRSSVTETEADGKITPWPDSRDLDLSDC
# Cannabinoid receptor 1, sequence (P21554 whole entry): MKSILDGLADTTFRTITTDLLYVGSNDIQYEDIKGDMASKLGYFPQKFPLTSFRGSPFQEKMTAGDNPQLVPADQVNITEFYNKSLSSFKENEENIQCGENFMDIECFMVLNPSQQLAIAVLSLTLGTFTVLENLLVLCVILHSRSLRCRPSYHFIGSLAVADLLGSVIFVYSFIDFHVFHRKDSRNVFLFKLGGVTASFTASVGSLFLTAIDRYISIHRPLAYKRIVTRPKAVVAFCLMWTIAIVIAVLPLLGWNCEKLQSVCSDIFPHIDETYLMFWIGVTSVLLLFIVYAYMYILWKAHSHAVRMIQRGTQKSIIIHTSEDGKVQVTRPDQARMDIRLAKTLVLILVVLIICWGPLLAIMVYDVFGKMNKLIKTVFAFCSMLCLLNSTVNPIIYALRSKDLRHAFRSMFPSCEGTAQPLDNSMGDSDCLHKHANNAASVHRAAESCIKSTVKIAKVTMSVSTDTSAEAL
smiles,measurement,setting,value
C=C(C)[C@@H]1CCC(C)=C[C@H]1c1c(O)cc([C@H](C)n2nccn2)cc1O,Activity,[1],Dose-dependent-effect
same,IC50,[1],3300 nM
same,inhibition,[2],Active
same,Activity,[3],Active
same,half-life,[4],48 min
same,Tmax,[5],18 min
same,MRT,[6],102 min
same,half-life,[7],42 min
same,Activity,[8],Active
same,Activity,[9],Active
same,Cmax,[10],46.6 ng/mg
same,Tmax,[11],30 min
same,Activity,[12],Non-toxic
same,Kp at 4 h,[13],> 2
same,ΔTm,[14],4.1 °C
same,Activity,[15],Active
same,Activity,[16],Active
same,Cmax,[17],130 ng/mg
same,Activity,[18],Non-toxic
same,AUC,[19],137.7 ng·h/g
same,Kp at 4 h,[20],3
same,Activity,[21],inactive
same,Kd,[22],2200 nM
same,MRT,[23],72 min
same,AUC,[24],75.5 ng·h/g
C=C(C)[C@@H]1CCC(C)=C[C@H]1c1c(O)cc([C@@H](C)n2nccn2)cc1O,IC50,[1],13200 nM
same,inhibition,[2],Active; Weak Inhibitory Effect Observed
same,Activity,[3],Active
same,Activity,[9],Active; Lessened Effect Observed
same,ΔTm,[14],1.6 °C
same,Activity,[15],inactive
same,Activity,[16],Active; Minimal Effect Observed
CCCCCCC(C)(C)c1cc(O)c2c(c1)OC(C)(C)c1ccc(C)c(CO)c1-2,Ki,[25],0.066 nM
same,Ki,[26],96 nM
C=C(C)[C@H]1CCC(C)=C[C@@H]1c1c(O)cc([C@H](C)n2nccn2)cc1O,IC50,[1],> 30000 nM
C=C(C)[C@H]1CCC(C)=C[C@@H]1c1c(O)cc([C@@H](C)n2nccn2)cc1O,IC50,[1],> 30000 nM
